Results: PubChem BioAssay AID1845209 (Molecular Pharmacology Branch, DTP, NCI, 2023)
Where “and” joins values, the source holds several entries; their conditions need not be identical. Equal values may be shown once.

Test system: NCI-H211 tumor spheroids, viability percent test/control
Test: Anticancer human tumor NCI-H211 cell line growth inhibition;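 further: spheroids exposed to agents for seven days before readout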
Conditions: spheroids with HUVEC and MSC; for viability, T/C: stronger effect = lower value
Outline: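 Complex tumor spheroids combined malignant cells with endothelial cells and mesenchymal stem cells. DNA-damaging drugs and DNA repair inhibitors were tested alone and in combination, at half-log dilutions down from clinical Cmax (top 10 microM if Cmax unknown), 0.25% DMSO final.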

## COc1ccc([C@@H](O)c2cc(-c3ncnc4cc(N5CCOCC5)ccc34)c(F)cc2Cl)nn1 + COc1cc2c(cc1O)CCNC21CSC2c3c(OC(C)=O)c(C)c4c(c3C(COC1=O)N1C(O)C3Cc5cc(C)c(OC)c(O)c5C(C21)N3C)OCO4
Curve of first compound, second compound 30 pM
  IC50: 583 nM
Curve of first compound, second compound 94.9 pM
  IC50: < 31.6 nM
Curve of first compound, second compound 0.0003 µM
  IC50: < 31.6 nM
Curve of first compound, second compound 0.000949 µM
  IC50: < 31.6 nM
Curve of first compound, second compound 0.003 µM
  IC50: < 31.6 nM
Second compound 30 pM, first compound 0.0316 µM
  viability, T/C: 104%
Second compound 30 pM, first compound 0.1 µM
  viability, T/C: 91.7%
Second compound 30 pM, first compound 0.316 µM
  viability, T/C: 71.9%
Second compound 30 pM, first compound 1 µM
  viability, T/C: 33%
Second compound 30 pM, first compound 3.16 µM
  viability, T/C: 1.14%
Second compound 30 pM, first compound 10 µM
  viability, T/C: 0.29%
Second compound 94.9 pM, first compound 0.0316 µM
  viability, T/C: 20.6%
Second compound 94.9 pM, first compound 0.1 µM
  viability, T/C: 12.6%
Second compound 94.9 pM, first compound 0.316 µM
  viability, T/C: 4.86%
Second compound 94.9 pM, first compound 1 µM
  viability, T/C: 0.5%
Second compound 94.9 pM, first compound 3.16 µM
  viability, T/C: 0.35%
Second compound 94.9 pM, first compound 10 µM
  viability, T/C: 0.2%
Second compound 0.0003 µM, first compound 0.0316 µM
  viability, T/C: 0.7%
Second compound 0.0003 µM, first compound 0.1 µM
  viability, T/C: 0.77%
Second compound 0.0003 µM, first compound 0.316 µM
  viability, T/C: 0.73%
Second compound 0.0003 µM, first compound 1 µM
  viability, T/C: 0.58%
Second compound 0.0003 µM, first compound 3.16 µM
  viability, T/C: 0.36%
Second compound 0.0003 µM, first compound 10 µM
  viability, T/C: 0.11%
Second compound 0.000949 µM, first compound 0.0316 µM
  viability, T/C: 0.63%
Second compound 0.000949 µM, first compound 0.1 µM
  viability, T/C: 0.64%
Second compound 0.000949 µM, first compound 0.316 µM
  viability, T/C: 0.51%
Second compound 0.000949 µM, first compound 1 µM
  viability, T/C: 0.16%
Second compound 0.000949 µM, first compound 3.16 µM
  viability, T/C: 0.02%
Second compound 0.000949 µM, first compound 10 µM
  viability, T/C: 0.11%
Second compound 0.003 µM, first compound 0.0316 µM
  viability, T/C: 0.1%
Second compound 0.003 µM, first compound 0.1 µM
  viability, T/C: 0.11%
Second compound 0.003 µM, first compound 0.316 µM
  viability, T/C: 0.1%
Second compound 0.003 µM, first compound 1 µM
  viability, T/C: 0.1%
Second compound 0.003 µM, first compound 3.16 µM
  viability, T/C: 0.1%
Second compound 0.003 µM, first compound 10 µM
  viability, T/C: 0.16%

## [2H]c1nc(C)nc([2H])c1-c1cc(NC[C@@H](C)c2cccc3c(C(=O)NC)ccnc23)ncn1
Compound 0.0316 µM
  viability, T/C: 105% and 102% and 99.5%
Compound 0.1 µM
  viability, T/C: 103% and 92.2% and 90.7%
Compound 0.316 µM
  viability, T/C: 111% and 103% and 77.5%
Compound 1 µM
  viability, T/C: 102% and 99.2% and 90%
Compound 3.16 µM
  viability, T/C: 105% and 107% and 89.8%
Compound 10 µM
  viability, T/C: 103% (2×) and 97.1%
Curve of compound
  IC50: > 10000 nM

## COc1ccc([C@@H](O)c2cc(-c3ncnc4cc(N5CCOCC5)ccc34)c(F)cc2Cl)nn1 + Cn1nnc2c(C(N)=O)ncn2c1=O
Curve of first compound, second compound 1 µM
  IC50: 6280 nM
Curve of first compound, second compound 3.16 µM
  IC50: 5810 nM
Curve of first compound, second compound 10 µM
  IC50: 3890 nM
Curve of first compound, second compound 31.6 µM
  IC50: < 31.6 nM
Curve of first compound, second compound 100 µM
  IC50: < 31.6 nM
Second compound 1 µM, first compound 0.0316 µM
  viability, T/C: 102%
Second compound 1 µM, first compound 0.1 µM
  viability, T/C: 102%
Second compound 1 µM, first compound 0.316 µM
  viability, T/C: 90.3%
Second compound 1 µM, first compound 1 µM
  viability, T/C: 74.5%
Second compound 1 µM, first compound 3.16 µM
  viability, T/C: 85.3%
Second compound 1 µM, first compound 10 µM
  viability, T/C: 31.5%
Second compound 3.16 µM, first compound 0.0316 µM
  viability, T/C: 88.9%
Second compound 3.16 µM, first compound 0.1 µM
  viability, T/C: 100%
Second compound 3.16 µM, first compound 0.316 µM
  viability, T/C: 105%
Second compound 3.16 µM, first compound 1 µM
  viability, T/C: 69.4%
Second compound 3.16 µM, first compound 3.16 µM
  viability, T/C: 73.2%
Second compound 3.16 µM, first compound 10 µM
  viability, T/C: 33.3%
Second compound 10 µM, first compound 0.0316 µM
  viability, T/C: 99%
Second compound 10 µM, first compound 0.1 µM
  viability, T/C: 88.6%
Second compound 10 µM, first compound 0.316 µM
  viability, T/C: 84%
Second compound 10 µM, first compound 1 µM
  viability, T/C: 71.9%
Second compound 10 µM, first compound 3.16 µM
  viability, T/C: 60.7%
Second compound 10 µM, first compound 10 µM
  viability, T/C: 21.7%
Second compound 31.6 µM, first compound 0.0316 µM
  viability, T/C: 41.1%
Second compound 31.6 µM, first compound 0.1 µM
  viability, T/C: 38.5%
Second compound 31.6 µM, first compound 0.316 µM
  viability, T/C: 35.1%
Second compound 31.6 µM, first compound 1 µM
  viability, T/C: 34.6%
Second compound 31.6 µM, first compound 3.16 µM
  viability, T/C: 21.1%
Second compound 31.6 µM, first compound 10 µM
  viability, T/C: 7.82%
Second compound 100 µM, first compound 0.0316 µM
  viability, T/C: 21.6%
Second compound 100 µM, first compound 0.1 µM
  viability, T/C: 19.3%
Second compound 100 µM, first compound 0.316 µM
  viability, T/C: 15.9%
Second compound 100 µM, first compound 1 µM
  viability, T/C: 8.08%
Second compound 100 µM, first compound 3.16 µM
  viability, T/C: 5.69%
Second compound 100 µM, first compound 10 µM
  viability, T/C: 2.16%
